According to US12618095B2, “Medium for Bacillus cereus group detection” (SHIMADZU DIAGNOSTICS CORPORATION, priority 2020, dated 2026):

Tests used:
Assay in all cases: Test Example 10: agar medium with aztreonam or ceftazidime
E. coli = assay type: cell-based; conditions: 22 hours; for Number of colonies: ATCC8739
B. thuringiensis = conditions: NBRC101235, 22 hours
E. amnigenus = conditions: 22 hours; for Number of colonies: ATCC33072
B. cereus = conditions: 22 hours

C[C@H]1[C@H](NC(=O)/C(=N\OC(C)(C)C(=O)O)c2csc(N)n2)C(=O)N1S(=O)(=O)O [aztreonam]
3: Number of colonies (B. thuringiensis; Aztreonam 0.05 mg, 10^1 cfu/mL) | Number of colonies (B. cereus; ATCC19637, Aztreonam 0.05 mg, 10^1 cfu/mL)
10: Number of colonies (B. cereus; ATCC19637, Aztreonam 0.5 mg, 10^2 cfu/mL)
1: Number of colonies (B. thuringiensis; Aztreonam 0.5 mg, 10^1 cfu/mL) | Number of colonies (B. cereus; ATCC11778, Aztreonam 0.05 mg, 10^1 cfu/mL) | Number of colonies (B. cereus; ATCC11778, Aztreonam 0.5 mg, 10^1 cfu/mL) | Number of colonies (B. cereus; ATCC19637, Aztreonam 0.5 mg, 10^1 cfu/mL) | Number of colonies (B. cereus; ATCC19637, Aztreonam 5 mg, 10^1 cfu/mL)
suppressed: formation of a white colony (E. coli; added to TSA-BC, 30° C.) | formation of a white colony (E. amnigenus; added to TSA-BC, 30° C.)
5: Number of colonies (B. cereus; ATCC19637, Aztreonam 5 mg, 10^2 cfu/mL)
13: Number of colonies (B. thuringiensis; Aztreonam 0.5 mg, 10^2 cfu/mL) | Number of colonies (B. cereus; ATCC11778, Aztreonam 0.05 mg, 10^2 cfu/mL)
17: Number of colonies (B. cereus; ATCC11778, Aztreonam 5 mg, 10^2 cfu/mL)
16: Number of colonies (B. thuringiensis; Aztreonam 0.05 mg, 10^2 cfu/mL) | Number of colonies (B. thuringiensis; Aztreonam 5 mg, 10^2 cfu/mL)
12: Number of colonies (B. cereus; ATCC11778, Aztreonam 0.5 mg, 10^2 cfu/mL)
−: Number of colonies (E. coli; Aztreonam 0.05 mg, 10^1 cfu/mL) | Number of colonies (E. coli; Aztreonam 0.05 mg, 10^2 cfu/mL) | Number of colonies (E. coli; Aztreonam 0.05 mg, 10^3 cfu/mL) | Number of colonies (E. coli; Aztreonam 0.05 mg, 10^4 cfu/mL) | Number of colonies (E. coli; Aztreonam 0.05 mg, 10^5 cfu/mL) | Number of colonies (E. coli; Aztreonam 0.5 mg, 10^1 cfu/mL) | Number of colonies (E. coli; Aztreonam 0.5 mg, 10^2 cfu/mL) | Number of colonies (E. coli; Aztreonam 0.5 mg, 10^3 cfu/mL) | Number of colonies (E. coli; Aztreonam 0.5 mg, 10^4 cfu/mL) | Number of colonies (E. coli; Aztreonam 0.5 mg, 10^5 cfu/mL) | Number of colonies (E. coli; Aztreonam 5 mg, 10^1 cfu/mL) | Number of colonies (E. coli; Aztreonam 5 mg, 10^2 cfu/mL) | Number of colonies (E. coli; Aztreonam 5 mg, 10^3 cfu/mL) | Number of colonies (E. coli; Aztreonam 5 mg, 10^4 cfu/mL) | Number of colonies (E. coli; Aztreonam 5 mg, 10^5 cfu/mL) | Number of colonies (E. amnigenus; Aztreonam 0.05 mg, 10^1 cfu/mL) | Number of colonies (E. amnigenus; Aztreonam 0.05 mg, 10^2 cfu/mL) | Number of colonies (E. amnigenus; Aztreonam 0.05 mg, 10^3 cfu/mL) | Number of colonies (E. amnigenus; Aztreonam 0.05 mg, 10^4 cfu/mL) | Number of colonies (E. amnigenus; Aztreonam 0.5 mg, 10^1 cfu/mL) | Number of colonies (E. amnigenus; Aztreonam 0.5 mg, 10^2 cfu/mL) | Number of colonies (E. amnigenus; Aztreonam 0.5 mg, 10^3 cfu/mL) | Number of colonies (E. amnigenus; Aztreonam 0.5 mg, 10^4 cfu/mL) | Number of colonies (E. amnigenus; Aztreonam 0.5 mg, 10^5 cfu/mL) | Number of colonies (E. amnigenus; Aztreonam 5 mg, 10^1 cfu/mL) | Number of colonies (E. amnigenus; Aztreonam 5 mg, 10^2 cfu/mL) | Number of colonies (E. amnigenus; Aztreonam 5 mg, 10^3 cfu/mL) | Number of colonies (E. amnigenus; Aztreonam 5 mg, 10^4 cfu/mL) | Number of colonies (E. amnigenus; Aztreonam 5 mg, 10^5 cfu/mL)
2: Number of colonies (B. thuringiensis; Aztreonam 5 mg, 10^1 cfu/mL) | Number of colonies (E. amnigenus; Aztreonam 0.05 mg, 10^5 cfu/mL) | Number of colonies (B. cereus; ATCC11778, Aztreonam 5 mg, 10^1 cfu/mL) | Number of colonies (B. cereus; ATCC19637, Aztreonam 0.05 mg, 10^2 cfu/mL)
+: Number of colonies (B. thuringiensis; Aztreonam 0.05 mg, 10^3 cfu/mL) | Number of colonies (B. thuringiensis; Aztreonam 0.05 mg, 10^4 cfu/mL) | Number of colonies (B. thuringiensis; Aztreonam 0.05 mg, 10^5 cfu/mL) | Number of colonies (B. thuringiensis; Aztreonam 0.5 mg, 10^3 cfu/mL) | Number of colonies (B. thuringiensis; Aztreonam 0.5 mg, 10^4 cfu/mL) | Number of colonies (B. thuringiensis; Aztreonam 0.5 mg, 10^5 cfu/mL) | Number of colonies (B. thuringiensis; Aztreonam 5 mg, 10^3 cfu/mL) | Number of colonies (B. thuringiensis; Aztreonam 5 mg, 10^4 cfu/mL) | Number of colonies (B. thuringiensis; Aztreonam 5 mg, 10^5 cfu/mL) | Number of colonies (B. cereus; ATCC11778, Aztreonam 0.05 mg, 10^3 cfu/mL) | Number of colonies (B. cereus; ATCC11778, Aztreonam 0.05 mg, 10^4 cfu/mL) | Number of colonies (B. cereus; ATCC11778, Aztreonam 0.05 mg, 10^5 cfu/mL) | Number of colonies (B. cereus; ATCC11778, Aztreonam 0.5 mg, 10^3 cfu/mL) | Number of colonies (B. cereus; ATCC11778, Aztreonam 0.5 mg, 10^4 cfu/mL) | Number of colonies (B. cereus; ATCC11778, Aztreonam 0.5 mg, 10^5 cfu/mL) | Number of colonies (B. cereus; ATCC11778, Aztreonam 5 mg, 10^3 cfu/mL) | Number of colonies (B. cereus; ATCC11778, Aztreonam 5 mg, 10^4 cfu/mL) | Number of colonies (B. cereus; ATCC11778, Aztreonam 5 mg, 10^5 cfu/mL) | Number of colonies (B. cereus; ATCC19637, Aztreonam 0.05 mg, 10^3 cfu/mL) | Number of colonies (B. cereus; ATCC19637, Aztreonam 0.05 mg, 10^4 cfu/mL) | Number of colonies (B. cereus; ATCC19637, Aztreonam 0.05 mg, 10^5 cfu/mL) | Number of colonies (B. cereus; ATCC19637, Aztreonam 0.5 mg, 10^3 cfu/mL) | Number of colonies (B. cereus; ATCC19637, Aztreonam 0.5 mg, 10^4 cfu/mL) | Number of colonies (B. cereus; ATCC19637, Aztreonam 0.5 mg, 10^5 cfu/mL) | Number of colonies (B. cereus; ATCC19637, Aztreonam 5 mg, 10^3 cfu/mL) | Number of colonies (B. cereus; ATCC19637, Aztreonam 5 mg, 10^4 cfu/mL) | Number of colonies (B. cereus; ATCC19637, Aztreonam 5 mg, 10^5 cfu/mL)
